# What was measured:
# Experiment in all cases: relative viability (nuclei count vs DMSO), 5 days (fraction); higher = more cells survive
# [1] = compound: N#CC[C@H](C1CCCC1)n1cc(-c2ncnc3[nH]ccc23)cn1 [Ruxolitinib] + COc1cc2c(Oc3ccc(NC(=O)C4(C(=O)Nc5ccc(F)cc5)CC4)cc3F)ccnc2cc1OCCCN1CCOCC1 [Foretinib] (partner 0.25 µM)
# Outline: (§1)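 Lung cancer cell lines in 1536-well plates got either a single drug or a fixed anchor-drug dose together with five library-drug doses (not always all listed) in √10 steps, by pin tool, on the day after seeding. Nuclei were counted after 5 days, and relative viability is the treated-to-vehicle ratio of nuclei counts. Values are medians of duplicate plates.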
# [2] = compound: CS(=O)(=O)c1ccc(-c2cnc(N)c(C(=O)Nc3ccccc3)n2)cc1 [VE-821] + Cc1cc(Nc2cc(N3CCN(C)CC3)nc(Sc3ccc(NC(=O)C4CC4)cc3)n2)n[nH]1 [Tozasertib] (partner 0.1 µM)
# Outline: as §1
# [3] = compound: CS(=O)(=O)c1ccc(-c2cnc(N)c(C(=O)Nc3ccccc3)n2)cc1 [VE-821] + COc1cc2c(Oc3ccc(NC(=O)C4(C(=O)Nc5ccc(F)cc5)CC4)cc3F)ccnc2cc1OCCCN1CCOCC1 [Foretinib] (partner 0.25 µM)
# Outline: as §1
# [4] = compound: CS(=O)(=O)c1ccc(-c2cnc(N)c(C(=O)Nc3ccccc3)n2)cc1 [VE-821] + CC(=O)Nc1cccc(-n2c(=O)n(C3CC3)c(=O)c3c(Nc4ccc(I)cc4F)n(C)c(=O)c(C)c32)c1 [Trametinib] (partner 0.02 µM)
# Outline: as §1
Cell Line,relative viability ([1]; first compound 0.08 µM),relative viability ([1]; first compound 0.253 µM),relative viability ([1]; first compound 0.8 µM),relative viability ([1]; first compound 2.53 µM),relative viability ([1]; first compound 8 µM),relative viability ([2]; first compound 0.08 µM),relative viability ([2]; first compound 0.253 µM),relative viability ([2]; first compound 0.8 µM),relative viability ([2]; first compound 2.53 µM),relative viability ([2]; first compound 8 µM),relative viability ([3]; first compound 0.08 µM),relative viability ([3]; first compound 0.253 µM),relative viability ([3]; first compound 0.8 µM),relative viability ([3]; first compound 2.53 µM),relative viability ([3]; first compound 8 µM),relative viability ([4]; first compound 0.08 µM),relative viability ([4]; first compound 0.253 µM),relative viability ([4]; first compound 0.8 µM),relative viability ([4]; first compound 2.53 µM),relative viability ([4]; first compound 8 µM)
NCI-H1395,1.07,0.919,1.03,0.866,0.968,0.765,0.716,0.671,0.703,0.762,1.05,1.01,0.826,0.98,0.828,1.11,0.988,0.913,1.02,0.763
NCI-H647,1.08,1.27,1.31,1.19,1.08,0.372,0.26,0.261,0.238,0.164,1.51,1.29,1.01,1.14,0.801,0.62,0.419,0.352,0.389,0.234
NCI-H23,1.07,0.969,1,0.813,0.709,0.323,0.559,0.263,0.192,0.179,1.19,1.13,0.889,0.688,0.39,0.459,0.457,0.34,0.278,0.272
H3255,0.747,0.91,0.968,0.95,0.836,0.74,0.777,0.633,0.639,0.612,0.883,0.843,0.913,0.91,0.857,0.666,0.646,0.619,0.88,0.63
NCI-H1651,0.621,0.791,0.947,0.776,0.95,0.779,0.616,0.345,0.517,0.422,0.72,0.838,0.662,0.885,1.02,0.876,0.799,0.733,0.808,0.821
NCI-H1734,0.862,0.713,0.894,0.759,0.815,0.292,0.245,0.235,0.24,0.226,0.972,0.854,0.805,1.02,0.722,0.718,0.732,0.651,0.723,0.587
CAL-12T,1.19,1.15,1.17,0.899,0.777,0.307,0.227,0.189,0.207,0.147,1.27,1.09,1.01,0.976,0.92,0.372,0.355,0.325,0.322,0.325
NCI-H1993,0.752,0.698,0.821,0.857,0.817,0.685,0.556,0.567,0.513,0.549,0.84,0.736,0.595,0.737,0.724,0.534,0.604,0.61,0.505,0.502
NCI-H1755,0.946,0.892,0.91,0.852,0.755,0.667,0.543,0.539,0.532,0.428,0.956,0.855,0.845,0.92,0.765,0.86,0.737,0.781,0.711,0.741
SK-LU-1,0.813,0.806,0.876,0.75,0.676,0.383,0.286,0.274,0.208,0.193,0.871,0.775,0.738,0.59,0.254,0.495,0.53,0.387,0.547,0.291
NCI-H358,0.531,0.692,0.638,0.619,0.558,0.12,0.105,0.0999,0.0895,0.0895,0.687,0.598,0.591,0.896,0.624,0.143,0.139,0.139,0.138,0.134
NCI-H1793,0.604,0.668,0.959,0.761,0.54,0.323,0.257,0.182,0.234,0.159,0.749,0.669,0.589,0.85,0.55,0.605,0.408,–,0.526,0.618
HCC-78,0.501,0.568,0.599,0.554,0.515,0.461,0.362,0.385,0.372,0.321,0.577,0.524,0.539,0.628,0.569,0.816,0.646,0.689,0.855,0.917
ChaGo-K-1,0.956,0.934,0.898,0.772,0.823,0.219,0.248,0.219,0.201,0.22,0.988,0.971,0.814,1,0.734,0.981,0.932,0.866,0.969,0.851

# Source: the supplement of paper PMC10307832
